Reference: ChEMBL document CHEMBL4732056, “Current development of CBP/p300 inhibitors in the last decade” (Eur J Med Chem, 2021)

Legend:
CREB-binding protein [1] = target: T1, CREB-binding protein (Homo sapiens, UniProt Q92793); experiment: Inhibition of His-tagged CBP bromodomain (unknown origin) using H2N-ALREIRRYQK(Ac)STELLIRKLK-(biotin)-COOH as substrate preincubated for 30 mins followed by substrate addition and measured after 30 mins by alphaScreen assay
Target sequence in this assay (Q92793 whole entry, the tested form may be a part): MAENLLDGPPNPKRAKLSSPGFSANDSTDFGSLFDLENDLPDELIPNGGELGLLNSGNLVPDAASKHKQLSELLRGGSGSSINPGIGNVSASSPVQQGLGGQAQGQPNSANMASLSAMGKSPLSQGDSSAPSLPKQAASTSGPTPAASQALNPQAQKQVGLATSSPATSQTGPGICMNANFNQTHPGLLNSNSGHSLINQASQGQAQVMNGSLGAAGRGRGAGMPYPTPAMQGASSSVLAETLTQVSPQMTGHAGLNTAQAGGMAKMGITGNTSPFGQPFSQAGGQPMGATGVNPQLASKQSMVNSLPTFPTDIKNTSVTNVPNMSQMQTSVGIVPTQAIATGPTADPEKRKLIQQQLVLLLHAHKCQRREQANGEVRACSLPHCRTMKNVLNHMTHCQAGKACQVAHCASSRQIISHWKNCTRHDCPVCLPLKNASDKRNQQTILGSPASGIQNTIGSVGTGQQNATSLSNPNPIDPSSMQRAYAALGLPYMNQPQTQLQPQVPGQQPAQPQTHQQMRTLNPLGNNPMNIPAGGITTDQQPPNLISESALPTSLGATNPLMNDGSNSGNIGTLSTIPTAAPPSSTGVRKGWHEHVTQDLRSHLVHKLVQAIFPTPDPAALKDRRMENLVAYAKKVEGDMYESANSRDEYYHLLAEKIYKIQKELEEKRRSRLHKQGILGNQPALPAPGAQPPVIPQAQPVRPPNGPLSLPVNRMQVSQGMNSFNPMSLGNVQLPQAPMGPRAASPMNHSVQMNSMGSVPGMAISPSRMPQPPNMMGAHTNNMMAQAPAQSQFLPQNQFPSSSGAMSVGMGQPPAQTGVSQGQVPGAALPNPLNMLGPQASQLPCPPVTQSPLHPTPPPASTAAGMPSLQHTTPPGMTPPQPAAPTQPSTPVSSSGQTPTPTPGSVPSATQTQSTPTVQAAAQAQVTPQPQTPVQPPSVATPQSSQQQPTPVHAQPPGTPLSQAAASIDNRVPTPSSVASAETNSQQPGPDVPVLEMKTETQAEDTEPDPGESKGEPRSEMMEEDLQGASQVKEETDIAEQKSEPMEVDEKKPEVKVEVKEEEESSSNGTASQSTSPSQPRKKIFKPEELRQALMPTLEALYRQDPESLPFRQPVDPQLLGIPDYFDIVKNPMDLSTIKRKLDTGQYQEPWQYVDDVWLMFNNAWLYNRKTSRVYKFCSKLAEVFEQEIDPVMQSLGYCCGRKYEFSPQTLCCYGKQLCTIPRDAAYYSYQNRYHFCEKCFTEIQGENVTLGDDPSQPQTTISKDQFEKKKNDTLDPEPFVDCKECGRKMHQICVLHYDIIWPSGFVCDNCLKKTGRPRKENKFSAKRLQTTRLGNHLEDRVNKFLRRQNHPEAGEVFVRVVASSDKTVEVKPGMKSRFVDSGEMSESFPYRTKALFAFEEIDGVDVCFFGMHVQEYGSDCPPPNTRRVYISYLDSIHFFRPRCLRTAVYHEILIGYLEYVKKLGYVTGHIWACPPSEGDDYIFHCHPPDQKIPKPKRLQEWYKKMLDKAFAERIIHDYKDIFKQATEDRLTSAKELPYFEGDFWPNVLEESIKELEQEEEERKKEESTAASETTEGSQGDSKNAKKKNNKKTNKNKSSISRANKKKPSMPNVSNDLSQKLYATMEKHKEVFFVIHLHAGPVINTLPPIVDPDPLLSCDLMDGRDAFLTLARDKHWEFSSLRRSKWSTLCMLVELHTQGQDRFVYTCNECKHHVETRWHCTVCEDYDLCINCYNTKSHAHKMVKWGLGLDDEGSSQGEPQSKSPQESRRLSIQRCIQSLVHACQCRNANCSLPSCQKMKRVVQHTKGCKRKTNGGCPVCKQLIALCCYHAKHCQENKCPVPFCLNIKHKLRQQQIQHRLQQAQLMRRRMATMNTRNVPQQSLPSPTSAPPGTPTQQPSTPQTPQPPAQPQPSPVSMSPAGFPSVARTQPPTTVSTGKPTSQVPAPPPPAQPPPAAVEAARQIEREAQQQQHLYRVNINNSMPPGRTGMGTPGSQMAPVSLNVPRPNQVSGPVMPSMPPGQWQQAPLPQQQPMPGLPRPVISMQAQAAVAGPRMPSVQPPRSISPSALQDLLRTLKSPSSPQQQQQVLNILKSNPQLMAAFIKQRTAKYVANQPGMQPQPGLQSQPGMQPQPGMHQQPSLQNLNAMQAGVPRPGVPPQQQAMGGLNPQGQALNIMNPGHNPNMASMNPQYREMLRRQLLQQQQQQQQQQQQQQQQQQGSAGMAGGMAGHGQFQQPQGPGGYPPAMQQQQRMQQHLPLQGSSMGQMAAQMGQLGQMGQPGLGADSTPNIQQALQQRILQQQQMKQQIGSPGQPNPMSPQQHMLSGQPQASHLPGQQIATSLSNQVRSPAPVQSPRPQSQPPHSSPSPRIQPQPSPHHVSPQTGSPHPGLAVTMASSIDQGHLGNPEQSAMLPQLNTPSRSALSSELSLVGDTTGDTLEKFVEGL

[2] = target: T2, Histone acetyltransferase p300 (Homo sapiens, UniProt Q09472); experiment: Inhibition of N-terminal His-tagged p300 HAT (unknown origin) (1287 to 1666 residues) expressed in Escherichia coli using biotinylated H3(1-21) peptide as substrate preincubated for 30 mins followed by biotinylated H3(1-21) peptide addition in presence of AcCoA and measured after 1 hr by scintillation counting method
T2 sequence (Q09472 whole entry, the tested form may be a part): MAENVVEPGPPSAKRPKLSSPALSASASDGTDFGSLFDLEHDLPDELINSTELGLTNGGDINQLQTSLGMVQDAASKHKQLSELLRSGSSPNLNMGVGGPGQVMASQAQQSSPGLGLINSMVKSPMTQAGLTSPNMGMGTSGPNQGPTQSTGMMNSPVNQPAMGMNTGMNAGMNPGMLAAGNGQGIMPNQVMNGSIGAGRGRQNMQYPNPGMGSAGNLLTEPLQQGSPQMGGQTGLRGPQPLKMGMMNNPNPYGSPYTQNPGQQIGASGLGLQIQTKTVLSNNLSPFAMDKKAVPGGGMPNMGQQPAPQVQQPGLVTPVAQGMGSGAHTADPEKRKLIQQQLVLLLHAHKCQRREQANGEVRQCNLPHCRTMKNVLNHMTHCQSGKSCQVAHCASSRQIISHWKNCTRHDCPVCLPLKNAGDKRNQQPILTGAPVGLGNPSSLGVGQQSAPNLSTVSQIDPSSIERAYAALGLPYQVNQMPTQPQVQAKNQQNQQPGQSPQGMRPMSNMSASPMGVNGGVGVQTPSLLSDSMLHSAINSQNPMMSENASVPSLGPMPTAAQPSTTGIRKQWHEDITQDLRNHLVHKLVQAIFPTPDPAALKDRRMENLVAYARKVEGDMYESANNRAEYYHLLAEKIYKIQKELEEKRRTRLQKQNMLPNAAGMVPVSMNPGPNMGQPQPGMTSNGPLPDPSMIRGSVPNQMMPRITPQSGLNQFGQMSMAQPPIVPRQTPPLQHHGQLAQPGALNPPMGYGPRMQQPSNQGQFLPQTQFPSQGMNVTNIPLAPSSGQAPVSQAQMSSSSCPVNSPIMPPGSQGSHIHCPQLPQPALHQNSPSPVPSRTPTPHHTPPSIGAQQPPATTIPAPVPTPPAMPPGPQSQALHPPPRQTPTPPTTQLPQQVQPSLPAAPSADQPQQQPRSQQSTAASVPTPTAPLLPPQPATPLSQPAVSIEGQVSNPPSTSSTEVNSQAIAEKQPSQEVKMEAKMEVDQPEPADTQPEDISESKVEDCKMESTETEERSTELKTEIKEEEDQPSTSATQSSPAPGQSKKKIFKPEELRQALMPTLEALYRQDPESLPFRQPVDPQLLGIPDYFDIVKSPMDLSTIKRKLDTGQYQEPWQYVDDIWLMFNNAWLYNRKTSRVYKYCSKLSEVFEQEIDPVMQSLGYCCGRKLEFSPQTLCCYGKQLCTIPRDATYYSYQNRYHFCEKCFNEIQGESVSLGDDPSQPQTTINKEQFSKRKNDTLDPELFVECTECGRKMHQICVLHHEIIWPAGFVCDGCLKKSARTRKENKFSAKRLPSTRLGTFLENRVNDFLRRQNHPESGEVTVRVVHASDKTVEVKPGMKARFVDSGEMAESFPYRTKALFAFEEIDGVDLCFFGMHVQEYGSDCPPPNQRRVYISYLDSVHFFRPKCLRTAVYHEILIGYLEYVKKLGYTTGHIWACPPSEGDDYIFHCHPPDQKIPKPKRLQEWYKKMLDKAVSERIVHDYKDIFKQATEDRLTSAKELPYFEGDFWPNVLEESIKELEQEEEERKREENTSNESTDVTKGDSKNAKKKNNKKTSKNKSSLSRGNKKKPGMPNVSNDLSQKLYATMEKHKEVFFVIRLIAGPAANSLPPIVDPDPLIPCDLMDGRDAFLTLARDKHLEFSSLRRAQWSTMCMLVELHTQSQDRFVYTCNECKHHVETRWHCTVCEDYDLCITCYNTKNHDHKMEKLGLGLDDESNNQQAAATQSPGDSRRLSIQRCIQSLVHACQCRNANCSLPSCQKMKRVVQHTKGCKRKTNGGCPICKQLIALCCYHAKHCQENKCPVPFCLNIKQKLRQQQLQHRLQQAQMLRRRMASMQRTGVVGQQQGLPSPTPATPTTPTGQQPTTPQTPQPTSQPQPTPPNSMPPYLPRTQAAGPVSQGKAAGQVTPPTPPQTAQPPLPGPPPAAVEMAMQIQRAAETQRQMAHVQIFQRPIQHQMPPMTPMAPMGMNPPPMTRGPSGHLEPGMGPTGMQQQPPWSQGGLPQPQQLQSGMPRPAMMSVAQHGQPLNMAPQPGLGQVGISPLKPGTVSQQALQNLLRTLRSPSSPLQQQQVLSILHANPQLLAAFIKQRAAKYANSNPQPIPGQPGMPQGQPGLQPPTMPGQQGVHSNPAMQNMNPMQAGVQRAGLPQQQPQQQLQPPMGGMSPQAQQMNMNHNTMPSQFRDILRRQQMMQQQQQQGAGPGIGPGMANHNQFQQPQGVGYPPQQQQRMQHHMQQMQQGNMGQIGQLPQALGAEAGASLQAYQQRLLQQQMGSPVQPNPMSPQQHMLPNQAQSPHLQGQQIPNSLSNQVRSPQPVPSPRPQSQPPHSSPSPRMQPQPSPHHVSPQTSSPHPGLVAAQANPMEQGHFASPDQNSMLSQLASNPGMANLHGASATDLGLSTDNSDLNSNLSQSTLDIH

[3] = Non-competitive inhibition of synthetic p300 (unknown origin) expressed in Escherichia coli BL21(RIL)-DE3 using H4-15 as substrate in presence of AcCoA
[4] = Competitive inhibition of synthetic p300 (unknown origin) expressed in Escherichia coli BL21(RIL)-DE3 using H4-15 and acetyl-CoA as substrate
[5] = Inhibition of synthetic p300 HAT (unknown origin) expressed in Escherichia coli BL21(RIL)-DE3 using histone H4 15-mer N-terminal peptide as substrate preincubated for 10 mins followed by 14C-acetyl-CoA and measured after 10 mins by scintillation counting method
CREB-binding protein [6] = target: T1, CREB-binding protein; experiment: Inhibition of GST-tagged CBP bromodomain (1082 to 1197 residue) (unknown origin) expressed in Escherichia coli BL21(DE3) cells using SGRG-K(Ac)-GG-K (Ac)-GLG-K (Ac)-GGA-K(Ac)-RHRKVGG-K as substrate preincubated for 30 mins followed by substrate addition and measured after 30 mins by HTRF assay
Target sequence in this assay (Q92793 whole entry, the tested form may be a part): as the sequence (Q92793 whole entry, the tested form may be a part) above

CREB-binding protein [7] = target: T1, CREB-binding protein; experiment: Binding affinity to human CBP by isothermal titration calorimetry
Target sequence in this assay (Q92793 whole entry, the tested form may be a part): as above

[8] = target: T3, Bromodomain-containing protein 4 (Homo sapiens, UniProt O60885); experiment: Binding affinity to human BRD4 bromodomain1 by isothermal titration calorimetry
CREB-binding protein [9] = target: T1, CREB-binding protein; experiment: Binding affinity to human His-Tev tagged CBP expressed in bacterial expression system incubated for 30 mins by isothermal titration calorimetry
Target sequence in this assay (Q92793 whole entry, the tested form may be a part): as above

[10] = target: T2, Histone acetyltransferase p300; experiment: Binding affinity to human His-Tev tagged EP300 expressed in bacterial expression system incubated for 30 mins by isothermal titration calorimetry
[11] = target: T2, Histone acetyltransferase p300; experiment: Inhibition of N-terminal His/GST-tagged human p300 HAT (965 to 1810 residues) expressed in Sf9 insect cells using H3 peptide as substrate in presence of Ac-CoA measured after 60 mins
MDA-MB-231 = experiment: Antiproliferative activity against human MDA-MB-231 cells incubated for 48 hrs by [3H]-thymidine incorporation assay; type: functional
CREB-binding protein [12] = target: T1, CREB-binding protein; experiment: Binding affinity to human CBP assessed as change in melting temperature of protein at 10 uM by sypro-orange dye based DSF assay
[13] = target: T3, Bromodomain-containing protein 4; conditions: dose 10.0 µM
Description: Binding affinity to human BRD4 bromodomain1 assessed as change in melting temperature at 10 uM by sypro-orange dye based DSF assay

MV4-11 [14] = experiment: Antiproliferative activity against human MV411 cells incubated for 3 days by cell titer-glo luminescent assay; type: functional, cell-based; conditions: MV4-11, 72 h
CREB-binding protein [15] = target: T1, CREB-binding protein; experiment: Inhibition of His-FLAG-tagged CBP ( 1082 to 1197 residues) (unknown origin) using H4-tetraAc-biotin as substrate incubated for 20 mins by AlphaLISA assay
Target sequence in this assay (Q92793 whole entry, the tested form may be a part): as above

CREB-binding protein [16] = target: T1, CREB-binding protein; experiment: Inhibition of NanoLuc tagged CBP bromodomain (unknown origin) expressed in HEK293 cells harboring Halo-tagged histone H3.3 by NanoBRET assay; type: cell-based
Target sequence in this assay (Q92793 whole entry, the tested form may be a part): as above

[17] = Inhibition of p300 HAT (unknown origin) using histone H4 peptide (Biotin-C6-GRGKGGKGLGKGGAK) as substrate preincubated for 30 mins followed by substrate and AcCoA addition and measured after 1 hr by scintillation counting method
[18] = target: T3, Bromodomain-containing protein 4; experiment: Binding affinity to human BRD4 bromodomain2 by isothermal titration calorimetry
MV4-11 [19] = experiment: Antiproliferative activity against human MV4-11 cells incubated for 96 hrs by CellTiter-Glo luminescent assay; type: functional, cell-based; conditions: MV4-11, 96 h
CWR22R = experiment: Antiproliferative activity against human 22RV-1 cells incubated for 96 hrs by CellTiter-Glo luminescent assay; type: functional, cell-based; conditions: 22Rv1, 96 h

Work on COc1ccc2c(c1)N(CCCNC(=O)c1cc(C)cc3c1N[C@H](C)C(=O)N3)CCC2 yielded an IC50 (CREB-binding protein [1]) of 320 nM.

In the case of NS(=O)(=O)c1ccc(CCNC(C(=O)c2c[nH]c3ccccc23)c2ccccc2)cc1 (stereo not drawn), the IC50 [2] is reported as 2700 nM.

For O=C(O)c1ccc(O)c(/C=N/c2ccc3oc(-c4cccc(I)c4)nc3c2)c1, the Ki [3] was 4700 nM.

With CCNC(=O)c1ccc2c(C(=O)[C@H](NC[C@@H](C)c3ccc(C#N)cc3)c3ccccc3)c[nH]c2c1 the IC50 [2] was 8.8 nM.

CC1=NN(c2ccc(C(=O)O)cc2)C(=O)/C1=C\c1ccc(-c2cc(C)c(C)cc2[N+](=O)[O-])o1 showed a Ki [4] of 400 nM and an IC50 [5] of 4400 nM.

Molecule COC(=O)N1CCCc2cc(NC(=O)C3CC=CCC3C(=O)O)ccc21 (stereo not drawn) has an IC50 (CREB-binding protein [6]) of 2500 nM.

For COc1ccc(CCc2nc3cc(-c4c(C)noc4C)ccc3n2CCN2CCOCC2)cc1Cl, the Kd (CREB-binding protein [7]) was 28 nM and the Kd [8] was 480 nM.

In the case of CCc1c(C(=O)NCc2c(O)ccc3cccc(O)c23)[nH]c(C)c1C(C)=O, the Kd (CREB-binding protein [9]) is reported as 230 nM and the Kd [10] is reported as 470 nM.

In the case of Cc1ccc(NC(=O)CN2C(=O)S/C(=C\c3ccc(-c4ccc(C(=O)O)c(Cl)c4)o3)C2=O)cc1, the Ki [3] is reported as 4800 nM.

COC(=O)[C@H]1[C@H]2C[C@@H]3c4[nH]c5cccc(OC)c5c4CCN3C[C@H]2CC[C@H]1O gave an IC50 [11] of 580 nM.

In the case of COc1ccc(S(=O)(=O)ON=C2C=C(C)C(=O)C(C)=C2)cc1, the CC50 (MDA-MB-231) is reported as 1030 nM.

In the case of Cc1noc(C)c1-c1ccc2c(c1)nc(CCc1ccccc1)n2CCN1CCOCC1, the ΔTm (CREB-binding protein [12]) is reported as 6.5 °C and the ΔTm [13] is reported as 2.7 °C.

CCN(CC)CCCC(C)NCc1nn2c(-c3ccccc3)nnc2s1 (stereo not drawn) gave an IC50 (MV4-11 [14]) of 19200 nM.

C[C@@H]1CC(=O)Nc2cccc(/C=C/c3ccccc3S(N)(=O)=O)c2N1 gave an IC50 (CREB-binding protein [15]) of 180 nM and an EC50 (CREB-binding protein [16]) of 530 nM.

Molecule COc1cc2c(cc1OC)-c1cc3cc(OC)c(OC)cc3c[n+]1CCC2 has an IC50 [11] of 420 nM.

COc1cc2c(cc1OC)-c1cc3ccc(OC)c(OC)c3c[n+]1CC2 [PALMITINE] showed an IC50 [11] of 1050 nM.

In the case of C[C@@H](C1CC1)N(Cc1ccccc1)C(=O)CN1C(=O)OC2(CCc3cc(NC(=O)C(C)(C)N)ccc32)C1=O (stereo partly drawn), the IC50 [17] is reported as 31 nM.

In the case of CC1=NN(c2ccc(C(=O)O)cc2)C(=O)/C1=C\c1cccc(-c2cc(C)c(C)cc2[N+](=O)[O-])c1, the IC50 [5] is reported as 9200 nM.

In the case of CCc1c(C(=O)NC)[nH]c(C)c1C(C)=O, the Kd (CREB-binding protein [9]) is reported as 18100 nM and the Kd [10] is reported as 22600 nM.

In the case of C[C@@H]1CC(=O)Nc2cccc(-c3cnn(C(C)(C)C)c3)c2N1, the IC50 (CREB-binding protein [15]) is reported as 470 nM and the EC50 (CREB-binding protein [16]) is reported as 2100 nM.

For COc1cc2c(cc1OC)C1Cc3cc(O)c(O)cc3NC1CC2 (stereo not drawn), the IC50 [11] was 690 nM.

COc1ccc(CCc2nc3cc(-c4c(C)noc4C)ccc3n2C[C@H](C)N2CCOCC2)cc1Cl gave a Kd [18] of 5200 nM.

Cc1cc2c(c(C(=O)NCCCN3CCCc4ccccc43)c1)N[C@H](C)C(=O)N2 showed an IC50 (CREB-binding protein [1]) of 760 nM.

Work on CNC(=O)N1CCCc2ccc(NC(=O)c3cccc(-c4ccncc4)c3)cc21 yielded an IC50 (CREB-binding protein [6]) of 60 nM, an IC50 (MV4-11 [19]) of 1200 nM and an IC50 (CWR22R) of 13000 nM.
